Tests used:
[1] = test system: Vero cells; test: Cytotoxicity MTT assay in Vero cells (MNTD, CC50); format: cell-based, African green monkey; conditions: Table S1; Vero cells
[2] = test system: CHIKV DRDE-07; test: In vitro screening against CHIKV (CPE inhibition and MTT cell viability); format: cell-based, chikungunya virus; conditions: Table S1, CHIKV-infected Vero cells; for % Cell viability: 72 hpi, MTT assay; for CPE: arbitrary score of cytopathic effect at >48 hpi

| Structure (SMILES) | MNTD [1] | % Cell viability [2] | CPE [2] |
| --- | --- | --- | --- |
| O=C(NNC(=O)c1cccnc1)c1ccccc1 [DCR4, N'-benzoylnicotinohydrazide] | 31.25 µM | 15% | ++++ (>60% (++++)) |
| O=C(NNC(=O)c1ccccc1Cl)c1cccnc1 [DCR5, N'-(2-chlorobenzoyl)nicotinohydrazide] | 31.25 µM | 13.49% | ++++ (>60% (++++)) |
| O=C(NNC(=O)c1cccnc1)c1ccc(Cl)cc1 [DCR6, N'-(4-chlorobenzoyl)nicotinohydrazide] | 31.25 µM | 16.98% | ++++ (>60% (++++)) |
| CC(=O)NNC(=O)c1cccnc1 [DCR7, N'-acetylnicotinohydrazide] | 62.5 µM | 20.31% | ++++ (>60% (++++)) |
| O=C(CCl)NNC(=O)c1cccnc1 [DCR8, N'-(2-chloroacetyl)nicotinohydrazide] | 31.25 µM | 13.8% | ++++ (>60% (++++)) |
| O=C(NNC(=O)c1ccncc1)c1ccccc1 [DCR9, N'-benzoylisonicotinohydrazide] | 31.25 µM | 9.92% | ++++ (>60% (++++)) |
| O=C(NNC(=O)c1ccccc1Cl)c1ccncc1 [DCR10, N'-(2-chlorobenzoyl)isonicotinohydrazide] | 31.25 µM | 21.19% | ++++ (>60% (++++)) |
| O=C(NNC(=O)c1ccc(Cl)cc1)c1ccncc1 [DCR11, N'-(4-chlorobenzoyl)isonicotinohydrazide] | 31.25 µM | 22.85% | ++++ (>60% (++++)) |
| O=C(CCl)NNC(=O)c1ccncc1 [DCR12, N'-(2-chloroacetyl)isonicotinohydrazide] | 31.25 µM | 16.34% | ++++ (>60% (++++)) |
| CC(=O)NNC(=O)c1ccncc1 [DCR13, N'-acetylisonicotinohydrazide] | 62.5 µM | 15.07% | ++++ (>60% (++++)) |
| O=C(N/N=C/c1ccccc1)c1cccnc1 [DCR14, (E)-N'-benzylidenenicotinohydrazide] | 31.25 µM | 22.93% | ++++ (>60% (++++)) |
| Cc1ccccc1/C=N/NC(=O)c1cccnc1 [DCR15, (E)-N'-(2-methylbenzylidene)nicotinohydrazide] | 31.25 µM | 14.76% | ++++ (>60% (++++)) |
| Cc1ccc(/C=N/NC(=O)c2cccnc2)cc1 [DCR16, (E)-N'-(4-methylbenzylidene)nicotinohydrazide] | 31.25 µM | 18.49% | ++++ (>60% (++++)) |
| CCOc1ccc(/C=N/NC(=O)c2cccnc2)cc1OC [DCR17, (E)-N'-(4-ethoxy-3-methoxybenzylidene)nicotinohydrazide] | 31.25 µM | 0.1% | ++++ (>60% (++++)) |
| CCOc1cc(/C=N/NC(=O)c2cccnc2)ccc1O [DCR18, (E)-N'-(3-ethoxy-4-hydroxybenzylidene)nicotinohydrazide] | 31.25 µM | 15.39% | ++++ (>60% (++++)) |
| O=C(N/N=C/c1cccc([N+](=O)[O-])c1)c1cccnc1 [DCR19, (E)-N'-(3-nitrobenzylidene)nicotinohydrazide] | 62.5 µM | 20.39% | ++++ (>60% (++++)) |
| O=C(N/N=C/c1ccccc1[N+](=O)[O-])c1cccnc1 [DCR20, (E)-N'-(2-nitrobenzylidene)nicotinohydrazide] | 31.25 µM | 22.69% | ++++ (>60% (++++)) |
| O=C(N/N=C/c1ccco1)c1cccnc1 [DCR21, (E)-N'-(furan-2-ylmethylene)nicotinohydrazide] | 62.5 µM | 0% | ++++ (>60% (++++)) |
| O=C(N/N=C/c1cccc(Br)c1)c1cccnc1 [DCR22, (E)-N'-(3-bromobenzylidene)nicotinohydrazide] | 15.6 µM | 19.28% | ++++ (>60% (++++)) |
| O=C(N/N=C/c1ccccc1Br)c1cccnc1 [DCR23, (E)-N'-(2-bromobenzylidene)nicotinohydrazide] | 15.6 µM | 28.01% | ++++ (>60% (++++)) |
| O=C(N/N=C/c1ccc(Cl)cc1)c1cccnc1 [DCR25, (E)-N'-(4-chlorobenzylidene)nicotinohydrazide] | 62.5 µM | 30.15% | ++++ (>60% (++++)) |

| Structure (SMILES) | MNTD [1] | % Cell viability [2] | CPE [2] |
| --- | --- | --- | --- |
| O=C(N/N=C/c1ccc(Cl)cc1Cl)c1cccnc1 [DCR26, (E)-N'-(2,4-dichlorobenzylidene)nicotinohydrazide] | 31.25 µM | 26.11% | ++++ (>60% (++++)) |
| COc1cc(/C=N/NC(=O)c2cccnc2)cc(OC)c1OC [DCR27, (E)-N'-(3,4,5-trimethoxybenzylidene)nicotinohydrazide] | 31.25 µM | 21.26% | ++++ (>60% (++++)) |
| O=C(O)c1ccc(/C=N/NC(=O)c2cccnc2)cc1 [DCR28, (E)-4-((2-nicotinoylhydrazono)methyl)benzoic acid] | 62.5 µM | 15.63% | ++++ (>60% (++++)) |
| Cc1ccccc1/C=N/NC(=O)c1ccncc1 [DCR30, (E)-N'-(2-methylbenzylidene)isonicotinohydrazide] | 62.5 µM | 23.8% | ++++ (>60% (++++)) |
| Cc1ccc(/C=N/NC(=O)c2ccncc2)cc1 [DCR31, (E)-N'-(4-methylbenzylidene)isonicotinohydrazide] | 62.5 µM | 1.03% | ++++ (>60% (++++)) |
| CCOc1ccc(/C=N/NC(=O)c2ccncc2)cc1OC [DCR32, (E)-N'-(4-ethoxy-3-methoxybenzylidene)isonicotinohydrazide] | 31.25 µM | 6.03% | ++++ (>60% (++++)) |
| CCOc1cc(/C=N/NC(=O)c2ccncc2)ccc1O [DCR33, (E)-N'-(3-ethoxy-4-hydroxybenzylidene)isonicotinohydrazide] | 62.5 µM | 0% | ++++ (>60% (++++)) |
| O=C(N/N=C/c1cccc([N+](=O)[O-])c1)c1ccncc1 [DCR34, (E)-N'-(3-nitrobenzylidene)isonicotinohydrazide] | 62.5 µM | 6.42% | ++++ (>60% (++++)) |
| O=C(N/N=C/c1ccccc1[N+](=O)[O-])c1ccncc1 [DCR35, (E)-N'-(2-nitrobenzylidene)isonicotinohydrazide] | 62.5 µM | 9.84% | ++++ (>60% (++++)) |
| O=C(N/N=C/c1ccco1)c1ccncc1 [DCR36, (E)-N'-(furan-2-ylmethylene)isonicotinohydrazide] | 62.5 µM | 5% | ++++ (>60% (++++)) |
| O=C(N/N=C/c1cccc(Br)c1)c1ccncc1 [DCR37, (E)-N'-(3-bromobenzylidene)isonicotinohydrazide] | 31.25 µM | 14.36% | ++++ (>60% (++++)) |
| O=C(N/N=C/c1ccccc1Br)c1ccncc1 [DCR38, (E)-N'-(2-bromobenzylidene)isonicotinohydrazide] | 31.25 µM | 25.1% | ++++ (>60% (++++)) |
| O=C(N/N=C/c1ccc(Cl)cc1)c1ccncc1 [DCR40, (E)-N'-(4-chlorobenzylidene)isonicotinohydrazide] | 31.25 µM | 5.23% | ++++ (>60% (++++)) |
| O=C(N/N=C/c1ccc(Cl)cc1Cl)c1ccncc1 [DCR41, (E)-N'-(2,4-dichlorobenzylidene)isonicotinohydrazide] | 31.25 µM | 35.79% | ++++ (>60% (++++)) |
| COc1cc(/C=N/NC(=O)c2ccncc2)cc(OC)c1OC [DCR42, (E)-N'-(3,4,5-trimethoxybenzylidene)isonicotinohydrazide] | 31.25 µM | 12.22% | ++++ (>60% (++++)) |
| O=C(O)c1ccc(/C=N/NC(=O)c2ccncc2)cc1 [DCR43, (E)-4-((2-isonicotinoylhydrazono)methyl)benzoic acid] | 31.25 µM | 16.82% | ++++ (>60% (++++)) |
| C/C(=N\NC(=O)c1ccncc1)c1ccccc1O [DCR44, (E)-N'-(1-(2-hydroxyphenyl)ethylidene)isonicotinohydrazide] | 31.25 µM | 18.88% | ++++ (>60% (++++)) |
| C/C(=N\NC(=O)c1cccnc1)c1ccc(O)cc1 [DCR45, (E)-N'-(1-(4-hydroxyphenyl)ethylidene)nicotinohydrazide] | 31.25 µM | 15.55% | ++++ (>60% (++++)) |
| C/C(=N\NC(=O)c1cccnc1)c1ccccc1N [DCR46, (E)-2-(1-(2-nicotinoylhydrazono)ethyl)benzenaminium] | 31.25 µM | 27.31% | ++++ (>60% (++++)) |
| C/C(=N\NC(=O)c1cccnc1)c1c(O)ccc2ccccc12 [DCR47, (E)-N'-(1-(2-hydroxynaphthalen-1-yl)ethylidene)nicotinohydrazide] | 31.25 µM | 6.42% | ++++ (>60% (++++)) |
| C#CCOC(=O)C1=C(C)NC(=O)NC1c1ccc([N+](=O)[O-])cc1 (centres unmarked) [DCR93, prop-2-yn-1-yl 6-methyl-4-(4-nitrophenyl)-2-oxo-1,2,3,4-tetrahydropyrimidine-5-carboxylate] |  | 12.17% | ++++ (>60% (++++)) |

Reference: PMC10674894 (Viruses, 2023)
